Assay: Inhibition of ADP induced platelet aggregation in human platelet-rich plasma (PRP)

Row | IC50 | Compound
1 | 420 nM | N=C(N)c1ccc(COc2ccc3c(c2)CCN(CCC(=O)O)C3=O)cc1 [3-[6-(4-Carbamimidoyl-benzyloxy)-1-oxo-3,4-dihydro-1H-isoquinolin-2-yl]-propionic acid]

Assay: Inhibition of ADP induced platelet aggregation in human platelet-rich plasma (PRP).

Row | IC50 | Compound
2 | 260 nM | COc1ccc(C(CC(=O)O)N2CCc3cc(OCc4ccc(C(=N)N)cc4)ccc3C2=O)cc1 (stereo not drawn) [3-[6-(4-Carbamimidoyl-benzyloxy)-1-oxo-3,4-dihydro-1H-isoquinolin-2-yl]-3-(4-methoxy-phenyl)-propionic acid]
3 | 200 nM | N=C(N)c1ccc(COc2ccc3c(c2)CCN(C(CC(=O)O)c2ccccc2)C3=O)cc1 (stereo not drawn) [3-[6-(4-Carbamimidoyl-benzyloxy)-1-oxo-3,4-dihydro-1H-isoquinolin-2-yl]-3-phenyl-propionic acid]
4 | 680 nM | COCCOCC(CC(=O)O)N1CCc2cc(OCc3ccc(C(=N)N)cc3)ccc2C1=O (stereo not drawn) [3-[6-(4-Carbamimidoyl-benzyloxy)-1-oxo-3,4-dihydro-1H-isoquinolin-2-yl]-4-(2-methoxy-ethoxy)-butyric acid]
5 | 470 nM | CCOCCCC(CC(=O)O)N1CCc2cc(OCc3ccc(C(=N)N)cc3)ccc2C1=O (stereo not drawn) [3-[6-(4-Carbamimidoyl-benzyloxy)-1-oxo-3,4-dihydro-1H-isoquinolin-2-yl]-6-ethoxy-hexanoic acid]
6 | 600 nM | COCCCC(CC(=O)O)N1CCc2cc(OCc3ccc(C(=N)N)cc3)ccc2C1=O (stereo not drawn) [3-[6-(4-Carbamimidoyl-benzyloxy)-1-oxo-3,4-dihydro-1H-isoquinolin-2-yl]-6-methoxy-hexanoic acid]
7 | 600 nM | CCCCC(CC(=O)O)N1CCc2cc(OCc3ccc(C(=N)N)cc3)ccc2C1=O (stereo not drawn) [3-[6-(4-Carbamimidoyl-benzyloxy)-1-oxo-3,4-dihydro-1H-isoquinolin-2-yl]-heptanoic acid]
8 | 230 nM | CCCC(CC(=O)O)N1CCc2cc(OCc3ccc(C(=N)N)cc3)ccc2C1=O (stereo not drawn) [3-[6-(4-Carbamimidoyl-benzyloxy)-1-oxo-3,4-dihydro-1H-isoquinolin-2-yl]-hexanoic acid]
9 | 3000 nM | CCCCCCC(CC(=O)O)N1CCc2cc(OCc3ccc(C(=N)N)cc3)ccc2C1=O (stereo not drawn) [3-[6-(4-Carbamimidoyl-benzyloxy)-1-oxo-3,4-dihydro-1H-isoquinolin-2-yl]-nonanoic acid]
10 | 570 nM | CCCCCC(CC(=O)O)N1CCc2cc(OCc3ccc(C(=N)N)cc3)ccc2C1=O (stereo not drawn) [3-[6-(4-Carbamimidoyl-benzyloxy)-1-oxo-3,4-dihydro-1H-isoquinolin-2-yl]-octanoic acid]
11 | 300 nM | CCC(CC(=O)O)N1CCc2cc(OCc3ccc(C(=N)N)cc3)ccc2C1=O (stereo not drawn) [3-[6-(4-Carbamimidoyl-benzyloxy)-1-oxo-3,4-dihydro-1H-isoquinolin-2-yl]-pentanoic acid]
12 | 220 nM | COC(=O)c1ccc(C(CC(=O)O)N2CCc3cc(OCc4ccc(C(=N)N)cc4)ccc3C2=O)cc1 (stereo not drawn) [4-{1-[6-(4-Carbamimidoyl-benzyloxy)-1-oxo-3,4-dihydro-1H-isoquinolin-2-yl]-2-carboxy-ethyl}-benzoic acid methyl ester]
13 | 30000 nM | N=C(N)c1ccc(COc2ccc3c(c2)CCN(CC(=O)O)C3=O)cc1 [[6-(4-Carbamimidoyl-benzyloxy)-1-oxo-3,4-dihydro-1H-isoquinolin-2-yl]-acetic acid]
